Measured values as given in ChEMBL document CHEMBL1140192, “Sorocenols G and H, anti-MRSA oxygen heterocyclic Diels-Alder-type adducts from Sorocea muriculata roots” (J Nat Prod, 2008).
Converted amounts (≈) assume the structure as drawn. The source made the active and inactive calls. The calls are words filed in the database; no cut-off is given here.

Key:
Assay type in all cases: functional, organism-based
Candida albicans = experiment: Antifungal activity against Candida albicans ATCC 90028 after 18 to 24 hrs
Aspergillus fumigatus = experiment: Antifungal activity against Aspergillus fumigatus ATCC 90906 after 68 to 72 hrs
Cryptococcus neoformans = experiment: Antifungal activity against Cryptococcus neoformans ATCC 90113 after 68 to 72 hrs
Staphylococcus aureus = experiment: Antibacterial activity against methicillin-resistant Staphylococcus aureus ATCC 43300 after 18 to 24 hrs
Pseudomonas aeruginosa = experiment: Antibacterial activity against Pseudomonas aeruginosa ATCC 27853 at 20 ug/mL after 18 to 24 hrs
[1] = system: Mycobacterium intracellulare; experiment: Antibacterial activity against Mycobacterium intracellular ATCC 23068 at 20 ug/mL after 68 to 72 hrs
Escherichia coli = experiment: Antibacterial activity against Escherichia coli ATCC 35218 at 20 ug/mL after 18 to 24 hrs

`CC1=C[C@@H]2c3c(O)cc(-c4cc5ccc(O)cc5o4)cc3O[C@]3(c4ccc(O)c5c4OC(C)(C)C=C5)Oc4cc(O)ccc4[C@H](C1)[C@@H]23` [SOROCENOL G] was tested, and the Activity (Candida albicans) was “Active”, the Activity (Aspergillus fumigatus) was “inactive” and the Activity (Cryptococcus neoformans) was “Active”. The IC50 (Staphylococcus aureus) was 1500 nM, the MBC (Staphylococcus aureus) was 31.8 µM (≈ 20 µg/mL) and the MIC (Staphylococcus aureus) was 4 µM (≈ 2.51 µg/mL). The Activity (Pseudomonas aeruginosa) was “inactive”, the Activity [1] was “inactive” and the Activity (Escherichia coli) was “inactive”.
`O=C(O)c1cn(C2CC2)c2cc(N3CCNCC3)c(F)cc2c1=O` [CIPROFLOXACIN] was tested, and the Activity (Staphylococcus aureus) was “inactive” and the MIC (Staphylococcus aureus) was 0.8 µM (≈ 0.265 µg/mL).
`CC(C)=CCc1c(O)ccc(C(=O)[C@H]2[C@H](c3c(O)cc(-c4cc5ccc(O)cc5o4)cc3O)C=C(C)C[C@H]2c2ccc(O)cc2O)c1O` [SOROCENOL H] gave an IC50 (Candida albicans) of 5400 nM, an MFC (Candida albicans) of 30.8 µM (≈ 20 µg/mL) and an MIC (Candida albicans) of 15.4 µM (≈ 9.99 µg/mL). The IC50 (Aspergillus fumigatus) was 10000 nM, the MFC (Aspergillus fumigatus) was 30.8 µM (≈ 20 µg/mL) and the MIC (Aspergillus fumigatus) was 15.4 µM (≈ 9.99 µg/mL). It also gave an IC50 (Cryptococcus neoformans) of 5400 nM, an MFC (Cryptococcus neoformans) of 7.7 µM (≈ 5 µg/mL) and an MIC (Cryptococcus neoformans) of 7.7 µM (≈ 5 µg/mL). It also gave an IC50 (Staphylococcus aureus) of 500 nM, an MBC (Staphylococcus aureus) of 30.8 µM (≈ 20 µg/mL) and an MIC (Staphylococcus aureus) of 1.9 µM (≈ 1.23 µg/mL). The Activity (Pseudomonas aeruginosa) was “inactive”, the Activity [1] was “inactive” and the Activity (Escherichia coli) was “inactive”.
With `C[C@@H]1[C@H](O)[C@@H](C)/C=C/C=C/C=C/C=C/C=C/C=C/C=C/[C@H](O[C@@H]2O[C@H](C)[C@@H](O)[C@H](N)[C@@H]2O)C[C@@H]2O[C@](O)(C[C@@H](O)C[C@@H](O)[C@H](O)CC[C@@H](O)C[C@@H](O)CC(=O)O[C@H]1C)C[C@H](O)[C@H]2C(=O)O` [AMPHOTERICIN B] the IC50 (Candida albicans) was 300 nM, the MFC (Candida albicans) was 1.4 µM (≈ 1.29 µg/mL) and the MIC (Candida albicans) was 0.7 µM (≈ 0.647 µg/mL). It also gave an IC50 (Aspergillus fumigatus) of 1600 nM, an MFC (Aspergillus fumigatus) of 2.7 µM (≈ 2.5 µg/mL) and an MIC (Aspergillus fumigatus) of 2.7 µM (≈ 2.5 µg/mL). For the same compound, the IC50 (Cryptococcus neoformans) was 900 nM, the MFC (Cryptococcus neoformans) was 2.5 µM (≈ 2.31 µg/mL) and the MIC (Cryptococcus neoformans) was 1.4 µM (≈ 1.29 µg/mL).
